The nature of data set [1]: Phase 1 multiple ascending dose (MAD) pharmacokinetics. It is filed as in vivo, human. On the procedure:
A two-part randomized, double-blind, placebo-controlled Phase 1 trial was conducted to assess the safety, tolerability, PK and PD of SRP-001 ascending doses (Quotient Sciences, Miami, FL USA). The study was conducted in accordance with the International Council for Harmonisation of Technical Requirements for Pharmaceuticals for Human Use (ICH), Guideline for GCP: Consolidated Guidance (E6), and applicable regulatory requirements(s) including clinical research guidelines established by the Basic Principles defined in the U.S. 21 CFR Parts 50, 56, and 312 and the principles enunciated in the Declaration of Helsinki (revised version Fortaleza 2013). The clinical protocol and informed consent form were reviewed and approved by an Institutional Review Board (IRB; Advarra IRB, 6100 Merriweather Drive, Suite 600, Columbia, MD 21044; Quotient Protocol No. SRP-101 and Quotient Sciences Study No. QSC205130; Quotient Sciences Miami, 3898 NW 7th Street, Miami, FL 33126.). The study comprises a SAD (Part 1) assessment that includes a food effect assessment that contributes data to inform a subsequent MAD (Part 2) dose-ranging study. Safety measurements were collected throughout the study for all subjects. Blood samples were collected to determine the PK parameters of SRP-001. ClinicalTrials.gov identifier: NCT05484414

The subject of the next data set is healthy volunteers. As to the kind of experiment: Phase 1 safety and tolerability. The class given is in vivo, human. Here is the method:
A randomized, double-blind, placebo-controlled Phase 1 trial (ClinicalTrials.gov identifier: NCT05484414) was conducted to assess the safety, tolerability, food effect, pharmacokinetics (PK), and pharmacodynamics (PD) of single and multiple ascending doses of SRP-001 (Quotient Sciences, Miami FL USA; FIG. 3H and Online Methods). The trial was conducted in accordance with the International Council for Harmonisation of Technical Requirements for Pharmaceuticals for Human Use (ICH), Guideline for GCP: Consolidated Guidance (E6), attained Institutional Review Board approval, and all applicable regulatory requirements for Phase 1, First in Human clinical trials. Safety measurements and plasma samples to determine PK parameters were collected throughout the study for all subjects and reviewed by the Safety Review Committee. PK stopping criteria were established to assure that systemic exposure to SRP-001 was less than or equal to the systemic exposure achieved at the NOAEL doses in the 28-day repeat-dose toxicology studies in the rat and dog. The trial's Safety Advisory Committee has approved the publication of the Phase 1 results.
A two-part randomized, double-blind, placebo-controlled Phase 1 trial was conducted to assess the safety, tolerability, PK and PD of SRP-001 ascending doses (Quotient Sciences, Miami, FL USA). […]
Safety—Holter (continuous ECG) Monitoring: NHVs also underwent continuous ECG Holter monitoring from at least 1 h prior to dosing until 24 h post-dose, and resulting measurements were monitored consistently. […] Where any scheduled rest times were missed, where there was less than a 10-min rest period, or where the final 5 min of a rest period was interrupted (for example, by subject movement or loss of leads), a protocol deviation was recorded, and the Holter provider was informed. Loss of leads or interruption of the recording outside of the scheduled rest times was not considered a protocol deviation but was recorded in the source. […]

Molecules are shown by their SMILES.

With `CCN(CC)C(=O)c1ccccc1S(=O)(=O)NCC(=O)Nc1ccc(O)cc1` [SRP-001, N,N-diethyl-2-[[2-(4-hydroxyanilino)-2-oxo-ethyl]sulfamoyl]benzamide], the “T1/2, geometric mean” value turned out to be 3.06 h in data set [1] (MAD 500 mg, Day 1); 4.05 h in data set [1] (MAD 1,000 mg, Day 1); 9.77 h in data set [1] (MAD 1,000 mg, Day 5). The “T1/2, arithmetic mean” value in data set [1] (MAD cohorts) worked out at 5.57 h. In addition, in data set [1] (Phase 1 MAD cohort), the “PK parameters on Day 5 versus Day 1” value was “demonstrated a decrease”. Moreover, the half-life in data set [1] (human, blood, summary aspect, read-out: half-life in said subject) is 4.9 to 9.8 h. Also, the emesis result in the data set with healthy volunteers (Phase 1 MAD cohort) is listed as “no emesis was reported”. Further, in the data set on healthy volunteers (SAD and MAD cohorts), the “safety assessments (vital signs, ECG, laboratory tests)” value is reported as “revealed no abnormalities”. Also, in the data set on healthy volunteers (oral nanosuspension, SAD and MAD cohorts, 42 subjects on SRP-001), the “tolerability / serious adverse events” value is recorded as “no serious adverse events (SAEs) reported”.

(Values after patent US20250339391A1, “METHODS FOR EFFECTIVE MANAGEMENT OF PAIN” (South Rampart Pharma, Inc., priority 2024, published 2025).)
